According to publication PMC6686047, “Efficient Inhibition of Human Papillomavirus Infection by L2 Minor Capsid-Derived Lipopeptide” (mBio, 2019):
Bridge positions count the residues as written; N and C are the ends. Ends that are not written are not given here. Peptide text beside a SMILES is read from it. * marks the point of attachment. FITC = O=C1OC2(c3ccc(O)cc3Oc3cc(O)ccc32)c2ccc(NC(=S)*)cc21; Stearoyl = CCCCCCCCCCCCCCCCCC(=O)*

Legend:
[1] = test system: HPV-Lucia (HPV16 pseudovirus carrying Lucia); details: for IC50: 4 h; for Relative anti-HPV activity: CHO-K1 cells, HPV-Lucia, Lucia activity at 36 hpi, potency compared with WT peptide (13-48, 100%) used at four concentrations
HeLa cells = experiment: L2N-FITC peptide binding and uptake assay; type: cell-based, homo sapiens; details: 500 nM FITC-m13-46st for indicated times, three PBS washes, fluorescence imaging
Method: (§1) FIG 5 The L2N lipopeptide blocks HPV entry without affecting HPV capsid priming and internalization. (A) Cell binding and uptake of L2N lipopeptide. HeLa cells were incubated with 500 nM FITC-m13-46st peptide for indicated times. Images were captured after three PBS washes. Bar, 25 μm. (B) L2N lipopeptide inhibits HPV-GFP entry. HeLa cells were treated with 500 nM L2N lipopeptide (13-46st) before (pre), during (co), or after (post) HPV-GFP inoculation. Mock, no peptide treatment. GFP intensity was analyzed at 36 hpi. Bar, 200 μm. (C) Peptide addition/withdrawal assays were performed as indicated in the schematic diagram (top). CHO-K1 cells were incubated with HPV-Lucia at 4°C for 2 h. The 13-46st lipopeptide (500 nM) was subsequently added or withdrawn from the medium 1, 2, 4, 8, and 16 h after viral attachment. Lucia activity was analyzed at 40 hpi. (D) CHO-K1 cells were infected with HPV-L2-PSTCD-3×FLAG (MOI of 50) and treated with the indicated chemicals: 500 nM dRVRK, 500 nM L2N lipopeptide 13-46st (L2N), 100 nM BafA1, and 1 μM γ-secretase inhibitor XXI. L2 immunoblotting was performed with anti-FLAG antibody at 16 hpi. […] Intracellular L1 and L2 levels were determined by immunoblotting with MD2H11 and JWW-1, respectively. […] HPV L2 JWW-1 epitope exposure was analyzed by immunostaining with JWW-1 antibody (in red). […]

furin cleavage of HPV L2 = experiment: Furin cleavage of PSTCD-fused L2 (immunoblot); type: cell-based, HPV16; details: CHO-K1 cells, HPV-L2-PSTCD-3×FLAG MOI of 50; 500 nM dRVRK, 500 nM 13-46st, 100 nM BafA1, 1 μM γ-secretase inhibitor XXI; anti-FLAG immunoblot
Method: as §1, with “The 13-46st lipopeptide (500 nM) was subsequently added or withdrawn from the medium 1, 2, 4, 8, and 16 h after viral attachment.” left out, “40” for “40 hpi. (D) CHO-K1 cells were infected with HPV-L2-PSTCD-3×FLAG (MOI of 50) and treated with the indicated chemicals: 500 nM dRVRK, 500 nM L2N lipopeptide 13-46st (L2N), 100 nM BafA1, and 1 μM γ-secretase inhibitor XXI. L2 immunoblotting was performed with anti-FLAG antibody at 16”
To further dissect how the L2N lipopeptide interfered with HPV entry, we tested whether furin cleavage, internalization, and JWW-1 epitope exposure of HPV were affected by peptide treatment in either CHO-K1 cells or HeLa cells. Furin cleavage was analyzed by infection of HPV PsV carrying Propionibacterium shermanii transcarboxylase domain (PSTCD)-fused L2. […] Internalization of viral particles was analyzed by detecting intracellular L1 and L2 at 2 h postinfection.

[2] = test system: HPV-GFP (HPV16 pseudovirus carrying GFP); type: cell-based; details: HeLa cells; ∼500 nM lipopeptide during inoculation; GFP at 36 hpi

CCCCCCCCCCCCCCCCCC(=O)NCCCC[C@H](NC(=O)[C@H](CO)NC(=O)CNC(=O)[C@H](Cc1ccc(O)cc1)NC(=O)[C@H](CCC(N)=O)NC(=O)[C@H](CC(C)C)NC(=O)[C@@H](NC(=O)[C@H](CCC(N)=O)NC(=O)[C@H](CCCCN)NC(=O)[C@H](C)NC(=O)[C@@H](NC(=O)[C@@H](NC(=O)[C@H](CCCCN)NC(=O)CNC(=O)[C@H](CCC(=O)O)NC(=O)[C@@H](NC(=O)[C@H](CCCCN)NC(=O)[C@@H]1CCCN1C(=O)[C@@H](NC(=O)[C@@H](NC(=O)[C@H](CC(=O)O)NC(=O)[C@@H]1CCCN1C(=O)[C@@H]1CCCN1C(=O)[C@@H]1CSSC[C@H](NC(=O)[C@@H](NC(=O)[C@H](CCCCN)NC(=O)[C@H](Cc2ccc(O)cc2)NC(=O)[C@H](CC(C)C)NC(=O)[C@H](CCC(N)=O)NC(=O)[C@@H](NC(=O)[C@H](C)NC(=O)[C@H](CO)NC(=O)[C@H](C)N)[C@@H](C)O)[C@@H](C)O)C(=O)N[C@@H](CCCCN)C(=O)N[C@@H](CCC(N)=O)C(=O)N[C@@H](C)C(=O)NCC(=O)N[C@@H]([C@@H](C)O)C(=O)N1)[C@@H](C)CC)[C@@H](C)CC)C(C)C)[C@@H](C)O)[C@@H](C)CC)[C@@H](C)CC)C(=O)O [13-50st-D43K] (H-ASATQLYKTCKQAGTCPPDIIPKVEGKTIAKQILQYGSK(Stearoyl)-OH; disulfide 10-16)
IC50 [1]: 200 nM

CCCCCCCCCCCCCCCCCC(=O)NCCCC[C@H](NC(=O)[C@H](CCCCNC(=S)Nc1ccc2c(c1)C(=O)OC21c2ccc(O)cc2Oc2cc(O)ccc21)NC(=O)[C@H](CO)NC(=O)CNC(=O)[C@H](CC(C)C)NC(=O)[C@@H](NC(=O)[C@H](CCCNC(=N)N)NC(=O)[C@H](CC(=O)O)NC(=O)[C@H](C)NC(=O)[C@H](CC(C)C)NC(=O)[C@@H](NC(=O)[C@H](CC(N)=O)NC(=O)CNC(=O)[C@H](CCC(=O)O)NC(=O)[C@@H](NC(=O)[C@H](CCCCN)NC(=O)[C@H](CC(N)=O)NC(=O)[C@@H](NC(=O)[C@@H](NC(=O)[C@H](CC(=O)O)NC(=O)[C@@H]1CCCN1C(=O)[C@@H]1CCCN1C(=O)[C@@H]1CSSC[C@H](NC(=O)[C@H](CCC(N)=O)NC(=O)[C@H](CCCNC(=N)N)NC(=O)[C@H](Cc2ccc(O)cc2)NC(=O)[C@H](CC(C)C)NC(=O)[C@H](CC(N)=O)NC(=O)[C@H](CO)NC(=O)[C@H](C)NC(=O)[C@H](CO)NC(=O)[C@@H](N)CC(=O)O)C(=O)N[C@@H](CCC(N)=O)C(=O)N[C@@H](C(C)C)C(=O)N[C@@H]([C@@H](C)O)C(=O)NCC(=O)N[C@@H](CC(N)=O)C(=O)N1)C(C)C)C(C)C)C(C)C)[C@@H](C)O)[C@@H](C)CC)C(=O)O [FITC-m13-46st] (H-DSASNLYRQCQVTGNCPPDVVNKVEGNTLADRILGSK(FITC)K(Stearoyl)-OH; disulfide 10-16)
IC50 [1]: < 10 nM | cell binding and uptake of the lipopeptide (HeLa cells): readily detected on HeLa cells at 15 min postincubation, and significant internalization was observed at 30 min postincubation and became apparent at 2 h postincubation

pZeo5-tSA-Furin-13-46-CVIM: HPV16 L2N13-46 lipopeptide with deletion of QYGT
Relative anti-HPV activity [1]: 5%

CCCCCCCCCC(=O)N[C@@H](CCCN=C(N)N)C(=O)N[C@H](C(=O)N[C@@H](CCCCN)C(=O)N[C@@H](CCCN=C(N)N)C(=O)CCl)C(C)C [dRVRK] (HELM PEPTIDE1{[CCCCCCCCCC(=O)[*:2]].R.V.K.R.[ClC[*:1]]}$$$$V2.0)
furin cleavage of L2 (furin cleavage of HPV L2): furin cleavage was inhibited

pZeo5-tSA-Furin-13-46GT-CVIM: HPV16 L2N lipopeptide with L2N13-46
Relative anti-HPV activity [1]: 200%

CCCCCCCCCCCCCCCCCC(=O)NCCCC[C@H](NC(=O)[C@H](CO)NC(=O)CNC(=O)[C@H](Cc1ccc(O)cc1)NC(=O)[C@H](CCC(N)=O)NC(=O)[C@H](CC(C)C)NC(=O)[C@@H](NC(=O)[C@H](CCC(N)=O)NC(=O)[C@H](CC(=O)O)NC(=O)[C@H](C)NC(=O)[C@@H](NC(=O)[C@@H](NC(=O)[C@H](CCCCN)NC(=O)CNC(=O)[C@H](CCC(=O)O)NC(=O)[C@@H](NC(=O)[C@H](CCCCN)NC(=O)[C@@H]1CCCN1C(=O)[C@@H](NC(=O)[C@@H](NC(=O)[C@H](CC(=O)O)NC(=O)[C@@H]1CCCN1C(=O)[C@@H]1CCCN1C(=O)[C@@H]1CSSC[C@H](NC(=O)[C@@H](NC(=O)[C@H](CCCCN)NC(=O)[C@H](Cc2ccc(O)cc2)NC(=O)[C@H](CC(C)C)NC(=O)[C@H](CCC(N)=O)NC(=O)[C@@H](NC(=O)[C@H](C)NC(=O)[C@H](CO)NC(=O)[C@H](C)N)[C@@H](C)O)[C@@H](C)O)C(=O)N[C@@H](CCCCN)C(=O)N[C@@H](CCC(N)=O)C(=O)N[C@@H](C)C(=O)NCC(=O)N[C@@H]([C@@H](C)O)C(=O)N1)[C@@H](C)CC)[C@@H](C)CC)C(C)C)[C@@H](C)O)[C@@H](C)CC)[C@@H](C)CC)C(=O)O [13-50st] (H-ASATQLYKTCKQAGTCPPDIIPKVEGKTIADQILQYGSK(Stearoyl)-OH; disulfide 10-16)
IC50 [1]: 30 nM

13-55CVIM: HPV16 L2N13-55 lipopeptide produced in 293T cells, CVIM motif isoprenylated, released by furin
Relative anti-HPV activity [1]: 10% | inhibition of HPV-GFP infection by L2N-CVIM lipopeptides (in words) [2]: suppressed HPV-GFP infection

SVIM: L2N13-48 peptide with cysteine-to-serine mutation in the CVIM motif, negative control
Relative anti-HPV activity [1]: 0% | inhibition of HPV-GFP infection by L2N-CVIM lipopeptides (in words) [2]: completely abolished their ability to inhibit HPV-GFP infection

ASATQLYKTCKQAGTCPPDIIPKVEGKTIADQILQYGSMGVFF (disulfide 10-16) [13-55-no st]
IC50 [1]: > 1000 nM

pZeo5-tSA-Furin-13-48GT-CVIM-QQKK: HPV16 L2N13-48 lipopeptide with double Q44K and Q47K
Relative anti-HPV activity [1]: 150%

pZeo5-tSA-Furin-13-44GT-CVIM: HPV16 L2N13-48 lipopeptide with deletion of ILQY
Relative anti-HPV activity [1]: < 0.8%

ASATQLYKTCKQAGTCPPDIIPKVEGKTIADQILQYGSMGVFFK(Stearoyl) (disulfide 10-16) [13-55st]
IC50 [1]: 100 nM

pZeo5-tSA-Furin-13-48GT-CVIM-D31K: HPV16 L2N13-48 lipopeptide with D31K
Relative anti-HPV activity [1]: 20%

13-48CVIM: HPV16 L2N13-48 lipopeptide produced in 293T cells, CVIM motif isoprenylated (geranylgeranylation), released by furin
Relative anti-HPV activity [1]: 100% | inhibition of HPV-GFP infection by L2N-CVIM lipopeptides (in words) [2]: suppressed HPV-GFP infection

pZeo5-tSA-Furin-13-48GT-CVIM-d42: HPV16 L2N13-48 lipopeptide with deletion of A42 (ASATQLYKTCKQAGTCPPDIIPKVEGKTIEQILQY; not fully specified (C-terminus); cysteine pairing not given here; also: CVIM isoprenylation motif lipopeptide; UniProt P03107 13-48, looked up, variant A42*)
Relative anti-HPV activity [1]: < 1%
